Structures are written as SMILES.

One test concerns NCI-H2087. The test can be described thus: relative viability (nuclei count vs DMSO), 5 days (fraction); higher = more cells survive. Conditions: first compound 0.2 µM. The method, boiled down:
(§1)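 Medians of duplicate plates are given as relative viability. That measure is the nuclei count in treated wells divided by the count in vehicle wells. Counts were taken on 4× images of lung cancer cell lines in 1536-well plates, 5 days after pin-tool dosing the day after seeding with one drug alone or a fixed anchor-drug dose plus five library-drug doses (not always all listed) in √10 steps.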
`COCC1(CO)C(=O)C2CCN1CC2` (stereo unspecified) [PRIMA-1MET] + CS(=O)(=O)CCNCc1ccc(-c2ccc3ncnc(Nc4ccc(OCc5cccc(F)c5)c(Cl)c4)c3c2)o1 [Lapatinib] (partner 2 µM) returned a relative viability of 0.848.

The compound `COCC1(CO)C(=O)C2CCN1CC2` (stereo unspecified) [PRIMA-1MET] + Cc1cc(Nc2cc(N3CCN(C)CC3)nc(Sc3ccc(NC(=O)C4CC4)cc3)n2)n[nH]1 [Tozasertib] (partner 0.1 µM) showed a relative viability of 0.321.

The compound `COCC1(CO)C(=O)C2CCN1CC2` (stereo unspecified) [PRIMA-1MET] + COc1cccc2cc(-c3nc([C@H]4CC[C@H](C(=O)O)CC4)n4ncnc(N)c34)[nH]c12 [OSI-027] (partner 0.5 µM) displayed a relative viability of 0.355.

Staying with this test, now noted: first compound 0.6325 µM.
In turn, `COCC1(CO)C(=O)C2CCN1CC2` (stereo unspecified) [PRIMA-1MET] + CS(=O)(=O)CCNCc1ccc(-c2ccc3ncnc(Nc4ccc(OCc5cccc(F)c5)c(Cl)c4)c3c2)o1 [Lapatinib] (partner 2 µM) gave a relative viability of 0.813.

Turning to `COCC1(CO)C(=O)C2CCN1CC2` (stereo unspecified) [PRIMA-1MET] + O=C(CCCCCCC(=O)Nc1ccccc1)NO [Vorinostat] (partner 1 µM), the relative viability was 0.479.

Compound `COCC1(CO)C(=O)C2CCN1CC2` (stereo unspecified) [PRIMA-1MET] + Cc1cc(Nc2cc(N3CCN(C)CC3)nc(Sc3ccc(NC(=O)C4CC4)cc3)n2)n[nH]1 [Tozasertib] (partner 0.1 µM) came in with a relative viability of 0.279.

`COCC1(CO)C(=O)C2CCN1CC2` (stereo unspecified) [PRIMA-1MET] + COc1cccc2cc(-c3nc([C@H]4CC[C@H](C(=O)O)CC4)n4ncnc(N)c34)[nH]c12 [OSI-027] (partner 0.5 µM) displayed a relative viability of 0.481.

The test is the same for the next values; noted with them: first compound 2 µM.
`COCC1(CO)C(=O)C2CCN1CC2` (stereo unspecified) [PRIMA-1MET] + CS(=O)(=O)CCNCc1ccc(-c2ccc3ncnc(Nc4ccc(OCc5cccc(F)c5)c(Cl)c4)c3c2)o1 [Lapatinib] (partner 2 µM) came in with a relative viability of 0.848.

`COCC1(CO)C(=O)C2CCN1CC2` (stereo unspecified) [PRIMA-1MET] + O=C(CCCCCCC(=O)Nc1ccccc1)NO [Vorinostat] (partner 1 µM) showed a relative viability of 0.604.

Turning to `COCC1(CO)C(=O)C2CCN1CC2` (stereo unspecified) [PRIMA-1MET] + Cc1cc(Nc2cc(N3CCN(C)CC3)nc(Sc3ccc(NC(=O)C4CC4)cc3)n2)n[nH]1 [Tozasertib] (partner 0.1 µM), the relative viability worked out at 0.267.

In turn, `COCC1(CO)C(=O)C2CCN1CC2` (stereo unspecified) [PRIMA-1MET] + COc1cccc2cc(-c3nc([C@H]4CC[C@H](C(=O)O)CC4)n4ncnc(N)c34)[nH]c12 [OSI-027] (partner 0.5 µM) returned a relative viability of 0.681.

The test is the same for the next values; noted with them: first compound 6.325 µM.
In turn, `COCC1(CO)C(=O)C2CCN1CC2` (stereo unspecified) [PRIMA-1MET] + CS(=O)(=O)CCNCc1ccc(-c2ccc3ncnc(Nc4ccc(OCc5cccc(F)c5)c(Cl)c4)c3c2)o1 [Lapatinib] (partner 2 µM) returned a relative viability of 1.22.

In the case of `COCC1(CO)C(=O)C2CCN1CC2` (stereo unspecified) [PRIMA-1MET] + O=C(CCCCCCC(=O)Nc1ccccc1)NO [Vorinostat] (partner 1 µM), the relative viability is 0.477.

As for `COCC1(CO)C(=O)C2CCN1CC2` (stereo unspecified) [PRIMA-1MET] + Cc1cc(Nc2cc(N3CCN(C)CC3)nc(Sc3ccc(NC(=O)C4CC4)cc3)n2)n[nH]1 [Tozasertib] (partner 0.1 µM), the relative viability was 0.271.

In turn, `COCC1(CO)C(=O)C2CCN1CC2` (stereo unspecified) [PRIMA-1MET] + COc1cccc2cc(-c3nc([C@H]4CC[C@H](C(=O)O)CC4)n4ncnc(N)c34)[nH]c12 [OSI-027] (partner 0.5 µM) had a relative viability of 0.433.

Staying with this test, now noted: first compound 20 µM.
In turn, `COCC1(CO)C(=O)C2CCN1CC2` (stereo unspecified) [PRIMA-1MET] + CS(=O)(=O)CCNCc1ccc(-c2ccc3ncnc(Nc4ccc(OCc5cccc(F)c5)c(Cl)c4)c3c2)o1 [Lapatinib] (partner 2 µM) yielded a relative viability of 0.919.

Regarding `COCC1(CO)C(=O)C2CCN1CC2` (stereo unspecified) [PRIMA-1MET] + O=C(CCCCCCC(=O)Nc1ccccc1)NO [Vorinostat] (partner 1 µM), the relative viability came out at 0.336.

`COCC1(CO)C(=O)C2CCN1CC2` (stereo unspecified) [PRIMA-1MET] + Cc1cc(Nc2cc(N3CCN(C)CC3)nc(Sc3ccc(NC(=O)C4CC4)cc3)n2)n[nH]1 [Tozasertib] (partner 0.1 µM): the relative viability was determined as 0.126.

Consider `COCC1(CO)C(=O)C2CCN1CC2` (stereo unspecified) [PRIMA-1MET] + COc1cccc2cc(-c3nc([C@H]4CC[C@H](C(=O)O)CC4)n4ncnc(N)c34)[nH]c12 [OSI-027] (partner 0.5 µM), for which the relative viability was determined as 0.262.

Another test has as its system NCI-H3122. The test is described as above. Conditions: first compound 0.2 µM. The method, boiled down: as §1
The compound `COCC1(CO)C(=O)C2CCN1CC2` (stereo unspecified) [PRIMA-1MET] + CS(=O)(=O)CCNCc1ccc(-c2ccc3ncnc(Nc4ccc(OCc5cccc(F)c5)c(Cl)c4)c3c2)o1 [Lapatinib] (partner 2 µM) yielded a relative viability of 0.711.

`COCC1(CO)C(=O)C2CCN1CC2` (stereo unspecified) [PRIMA-1MET] + O=C(CCCCCCC(=O)Nc1ccccc1)NO [Vorinostat] (partner 1 µM) came in with a relative viability of 1.01.

In turn, `COCC1(CO)C(=O)C2CCN1CC2` (stereo unspecified) [PRIMA-1MET] + Cc1cc(Nc2cc(N3CCN(C)CC3)nc(Sc3ccc(NC(=O)C4CC4)cc3)n2)n[nH]1 [Tozasertib] (partner 0.1 µM) yielded a relative viability of 0.524.

`COCC1(CO)C(=O)C2CCN1CC2` (stereo unspecified) [PRIMA-1MET] + COc1cccc2cc(-c3nc([C@H]4CC[C@H](C(=O)O)CC4)n4ncnc(N)c34)[nH]c12 [OSI-027] (partner 0.5 µM) had a relative viability of 0.594.

The same test, now with this note: first compound 0.6325 µM.
In turn, `COCC1(CO)C(=O)C2CCN1CC2` (stereo unspecified) [PRIMA-1MET] + CS(=O)(=O)CCNCc1ccc(-c2ccc3ncnc(Nc4ccc(OCc5cccc(F)c5)c(Cl)c4)c3c2)o1 [Lapatinib] (partner 2 µM) gave a relative viability of 1.04.

`COCC1(CO)C(=O)C2CCN1CC2` (stereo unspecified) [PRIMA-1MET] + O=C(CCCCCCC(=O)Nc1ccccc1)NO [Vorinostat] (partner 1 µM) showed a relative viability of 0.861.

With `COCC1(CO)C(=O)C2CCN1CC2` (stereo unspecified) [PRIMA-1MET] + Cc1cc(Nc2cc(N3CCN(C)CC3)nc(Sc3ccc(NC(=O)C4CC4)cc3)n2)n[nH]1 [Tozasertib] (partner 0.1 µM), the relative viability stood at 0.361.
